Laboratory results from the supplement of paper PMC10307832.

What was measured:
Experiment in all cases: relative viability (nuclei count vs DMSO), 5 days (fraction); higher = more cells survive
[1] = compound: CN1C=C(C2=CC=CC=C21)/C=C\3/C4=C(C=CC=N4)NC3=O + Nc1ncn([C@H]2C[C@H](O)[C@@H](CO)O2)c(=O)n1 [Decitabine] (partner 2 µM)
How it was run: (§1)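 The day after seeding in 1536-well plates, lung cancer cell lines were treated by pin tool with a single drug, or with a fixed anchor-drug dose together with five library-drug doses (not always all listed) in √10 steps. After 5 days, a combined fix-and-stain solution (final 0.05% Triton X-100, 1% formaldehyde, 1 ug/ml Hoechst) was added. Nuclei counted on 4× images gave relative viability as treated counts over vehicle counts, reported as the median of duplicate plates.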

[2] = compound: CN1C=C(C2=CC=CC=C21)/C=C\3/C4=C(C=CC=N4)NC3=O + O=C(c1cc(Cc2n[nH]c(=O)c3ccccc23)ccc1F)N1CCN(C(=O)C2CC2)CC1 [Olaparib] (partner 8 µM)
How it was run: as §1

[3] = compound: CC(=O)Nc1cccc(-n2c(=O)n(C3CC3)c(=O)c3c(Nc4ccc(I)cc4F)n(C)c(=O)c(C)c32)c1 [Trametinib] + N=C(N)NC(=N)NCCc1ccccc1 [Phenformin] (partner 250 µM)
How it was run: as §1

[4] = compound: CN1C=C(C2=CC=CC=C21)/C=C\3/C4=C(C=CC=N4)NC3=O + CCNC(=O)c1noc(-c2cc(C(C)C)c(O)cc2O)c1-c1ccc(CN2CCOCC2)cc1 [Luminespib] (partner 0.01 µM)
How it was run: as §1

| Cell Line | relative viability ([1]; first compound 0.02 µM) | relative viability ([1]; first compound 0.06325 µM) | relative viability ([1]; first compound 0.2 µM) | relative viability ([1]; first compound 0.6325 µM) | relative viability ([1]; first compound 2 µM) | relative viability ([2]; first compound 0.02 µM) | relative viability ([2]; first compound 0.06325 µM) | relative viability ([2]; first compound 0.2 µM) | relative viability ([2]; first compound 0.6325 µM) | relative viability ([2]; first compound 2 µM) | relative viability ([3]; first compound 0.0025 µM) | relative viability ([3]; first compound 0.007906 µM) | relative viability ([3]; first compound 0.025 µM) | relative viability ([3]; first compound 0.07906 µM) | relative viability ([3]; first compound 0.25 µM) | relative viability ([4]; first compound 0.02 µM) | relative viability ([4]; first compound 0.06325 µM) | relative viability ([4]; first compound 0.2 µM) | relative viability ([4]; first compound 0.6325 µM) | relative viability ([4]; first compound 2 µM) |
| --- | --- | --- | --- | --- | --- | --- | --- | --- | --- | --- | --- | --- | --- | --- | --- | --- | --- | --- | --- | --- |
| NCI-H1355 | 0.342 | 0.375 | 0.374 | 0.317 | 0.324 | 0.558 | 0.678 | 0.717 | 0.469 | 0.574 | 0.394 | 0.415 | 0.322 | 0.382 | 0.308 | 0.65 | 0.623 | 0.669 | 0.533 | 0.629 |
| NCI-H1395 | 0.642 | 0.702 | 0.686 | 0.699 | 0.688 | 0.461 | 0.476 | 0.455 | 0.527 | 0.457 | 0.479 | 0.445 | 0.432 | 0.416 | 0.328 | 0.876 | 0.595 | 0.521 | 0.696 | 0.669 |
| NCI-H1437 | 0.593 | 0.591 | 0.527 | 0.664 | 0.668 | 0.628 | 0.644 | 0.657 | 0.681 | 0.658 | 0.258 | 0.205 | 0.23 | 0.201 | 0.206 | 1.14 | 1.08 | 1.22 | 1.25 | 1.24 |
| NCI-H1650 | 0.419 | 0.427 | 0.378 | 0.385 | 0.45 | 0.843 | 0.69 | 0.718 | 0.714 | 0.749 | 0.388 | 0.538 | 0.495 | 0.325 | 0.151 | 0.19 | 0.183 | 0.195 | 0.203 | 0.207 |
| NCI-H1651 | 0.649 | 0.613 | 0.5 | 0.643 | 0.578 | 0.18 | 0.164 | 0.182 | 0.197 | 0.217 | 0.26 | 0.293 | 0.296 | 0.288 | 0.182 | 0.953 | 0.772 | 1.02 | 1.13 | 1.02 |
| NCI-H1666 | 0.7 | 0.701 | 0.591 | 0.764 | 0.658 | 0.749 | 0.735 | 0.706 | 0.708 | 0.714 | 0.526 | 0.574 | 0.6 | 0.57 | 0.513 | 1 | 1.04 | 1.05 | 0.99 | 1.04 |
| NCI-H1734 | 0.482 | 0.535 |  | 0.515 | 0.499 | 0.355 | 0.596 |  | 0.588 | 0.631 | 0.289 | 0.292 | 0.217 | 0.245 | 0.206 | 0.212 | 0.208 |  | 0.203 | 0.866 |
| NCI-H1755 | 0.668 | 0.758 | 0.674 | 0.675 | 0.691 | 0.903 | 0.946 | 0.83 | 0.699 | 0.681 | 0.593 | 0.587 | 0.608 | 0.594 | 0.512 | 0.376 | 0.369 | 0.541 | 0.37 | 0.387 |
| NCI-H1792 | 0.439 | 0.648 | 0.645 | 0.497 | 0.511 | 0.502 | 0.349 | 0.32 | 0.254 | 0.376 | 0.309 | 0.206 | 0.071 | 0.157 | 0.0553 | 0.447 | 0.447 |  | 0.413 | 0.643 |
| NCI-H1793 | 0.34 | 0.521 | 0.493 | 0.59 | 0.499 | 0.678 | 0.813 | 0.72 | 0.817 | 0.63 | 0.329 | 0.314 | 0.283 | 0.176 | 0.219 | 0.228 | 0.202 | 0.204 | 0.186 | 0.189 |
| NCI-H1915 | 0.242 | 0.258 | 0.287 | 0.573 | 0.53 | 0.259 | 0.257 | 0.28 | 0.304 | 0.257 | 0.38 | 0.306 | 0.249 | 0.304 | 0.141 | 0.728 | 0.816 | 0.894 | 0.431 | 0.954 |
| NCI-H1944 | 0.423 | 0.419 |  | 0.415 | 0.416 | 0.382 | 0.368 |  | 0.377 | 0.403 | 0.187 | 0.159 | 0.152 | 0.148 | 0.137 | 0.706 | 0.742 |  | 0.767 | 0.897 |
| NCI-H1975 | 0.396 | 0.277 | 0.356 | 0.363 | 0.347 | 0.803 | 0.737 | 0.674 | 0.61 | 0.47 | 0.386 | 0.308 | 0.291 | 0.234 | 0.124 | 0.0911 | 0.261 | 0.187 | 0.338 | 0.206 |
| NCI-H1993 | 0.532 | 0.589 | 1.3 | 0.578 | 0.529 | 0.781 | 1.09 | 1.06 | 0.972 | 0.966 | 0.538 | 0.536 | 0.558 | 0.554 | 0.56 | 0.828 | 0.686 | 0.813 | 0.67 | 0.369 |
| NCI-H2009 | 0.303 | 0.355 | 0.352 | 0.382 | 0.417 | 0.598 | 0.636 | 0.703 | 0.677 | 0.604 | 0.394 | 0.302 | 0.231 | 0.213 | 0.215 | 0.997 | 1.03 | 1.05 | 1.02 | 1.09 |
| NCI-H2023 | 0.245 | 0.215 | 0.193 | 0.229 | 0.245 | 0.451 | 0.53 | 0.566 | 0.432 | 0.517 | 0.34 | 0.393 | 0.349 | 0.289 | 0.167 | 0.899 | 0.602 | 0.763 | 0.914 | 0.527 |
| NCI-H2085 | 0.523 | 0.494 | 0.559 | 0.491 | 0.525 | 0.806 | 0.75 | 0.86 | 0.857 | 0.847 | 0.588 | 0.509 | 0.332 | 0.464 | 0.25 | 0.454 | 0.412 | 0.436 | 0.411 | 0.485 |
| NCI-H2087 | 0.227 | 0.239 | 0.255 | 0.326 | 0.363 | 0.513 | 0.56 | 0.62 | 0.511 | 0.653 | 0.294 | 0.258 | 0.146 | 0.153 | 0.111 | 0.173 | 0.175 | 0.197 | 0.151 | 0.154 |
| NCI-H2126 | 0.631 | 0.585 | 0.569 | 0.536 | 0.508 | 0.888 | 0.853 | 0.919 | 0.971 | 0.883 | 0.501 | 0.464 | 0.419 | 0.481 | 0.466 | 1 | 0.875 | 0.852 | 0.907 | 0.932 |
| NCI-H2170 | 0.481 | 0.487 | 0.458 | 0.447 | 0.411 | 0.652 | 0.559 | 0.628 | 0.517 | 0.578 | 0.351 | 0.414 | 0.399 | 0.357 | 0.333 | 0.623 | 0.616 | 0.626 | 0.778 | 0.738 |
| NCI-H2342 | 0.685 | 0.702 | 0.674 | 0.693 | 0.623 | 0.49 | 0.449 | 0.47 | 0.453 | 0.461 | 0.49 | 0.549 |  | 0.403 | 0.56 | 0.685 | 0.743 | 0.6 | 0.757 | 0.669 |
| NCI-H2347 | 0.563 | 0.552 | 0.588 | 0.582 | 0.608 | 0.491 | 0.503 | 0.539 | 0.565 | 0.616 | 0.225 | 0.125 | 0.233 | 0.164 | 0.143 |  | 0.288 | 0.352 | 0.339 | 0.569 |
| NCI-H2405 | 0.739 | 0.676 | 0.653 | 0.725 | 0.734 | 0.854 | 0.843 | 0.729 | 0.87 | 0.804 | 0.326 | 0.316 | 0.28 | 0.202 | 0.251 | 0.809 | 0.603 | 0.629 | 0.738 | 0.74 |
| NCI-H3122 | 0.407 | 0.445 | 0.38 | 0.496 | 0.507 | 0.621 | 0.578 | 0.653 | 0.681 | 0.652 | 0.381 | 0.296 | 0.282 | 0.243 | 0.233 | 0.0819 | 0.0768 | 0.0923 | 0.0892 | 0.0964 |
| PC-3 [JPC-3] | 0.863 | 0.777 | 0.863 | 0.786 | 0.812 | 1.03 | 1.1 | 1.12 | 1.2 | 1.16 | 0.46 | 0.463 | 0.427 | 0.405 | 0.373 | 0.628 | 0.595 | 0.647 | 0.682 | 0.839 |
| PC-14 | 0.218 | 0.209 | 0.178 | 0.23 | 0.226 | 0.213 | 0.237 | 0.197 | 0.235 | 0.251 | 0.568 | 0.531 | 0.322 | 0.212 | 0.102 | 0.212 | 0.138 |  | 0.173 | 0.135 |
| RERF-LC-KJ | 0.736 | 0.633 | 0.708 | 0.666 | 0.687 | 0.736 | 0.681 | 0.763 | 0.528 | 0.468 | 0.371 | 0.391 | 0.382 | 0.371 | 0.321 | 1.21 | 1.14 | 1.22 | 1.24 | 1.37 |
